Results taken from publication PMC4586513, “Mitochondrial ADP/ATP exchange inhibition: a novel off-target mechanism underlying ibipinabant-induced myotoxicity” (Scientific Reports, 2015).

Molecular target: T1, adenine nucleotide translocase 1 (ANT1) (Bos taurus, UniProt P02722)
T1 construct: gene SLC25A4; native ANT in isolated bovine heart mitochondria
T1 sequence (P02722 2-298): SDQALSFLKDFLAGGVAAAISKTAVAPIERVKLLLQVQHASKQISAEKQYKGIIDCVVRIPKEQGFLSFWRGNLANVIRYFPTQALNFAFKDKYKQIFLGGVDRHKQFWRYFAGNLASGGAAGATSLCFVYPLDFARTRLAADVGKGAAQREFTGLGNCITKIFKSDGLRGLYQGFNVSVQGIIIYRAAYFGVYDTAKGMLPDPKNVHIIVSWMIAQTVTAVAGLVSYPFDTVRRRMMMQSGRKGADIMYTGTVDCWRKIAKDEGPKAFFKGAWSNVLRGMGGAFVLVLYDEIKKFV
Assay: […]ADP uptake in isolated bovine heart mitochondria with […] atractyloside; import decreased to […]
Type: cell-based

Compound: C=C1[C@@H]2CC[C@H]3[C@]4(C)C[C@H](O[C@@H]5O[C@H](CO)[C@@H](OS(=O)(=O)O)[C@H](OS(=O)(=O)O)[C@H]5OC(=O)CC(C)C)C[C@@H](C(=O)O)[C@H]4CC[C@]3(C2)[C@H]1O [atractyloside]
- remaining activity at 50 µM: 13.8 ± 1.1%
